The melting point is the temperature of the solid-liquid transition. The pIC50 is the IC50 on a negative log10 scale, so that one unit is a factor of ten. A lower pIC50 goes with a large IC50.

Molecules are shown by their SMILES. pIC50: −log10 of the molar value. Where a name gives a salt, the structure may show the parent alone.

Series [1] deals with T1, NR1A/NR2B NMDA receptor subtype (Rattus norvegicus, UniProt P35439+Q00960).
T1 construct: membrane fraction was prepared from frozen adult rat forebrains; tissue Zivic-Miller Laboratories, Inc; host or cells: adult rat forebrain, washed buffy coat membrane fraction
T1 sequence (Q00960 27-1482, other chains not shown): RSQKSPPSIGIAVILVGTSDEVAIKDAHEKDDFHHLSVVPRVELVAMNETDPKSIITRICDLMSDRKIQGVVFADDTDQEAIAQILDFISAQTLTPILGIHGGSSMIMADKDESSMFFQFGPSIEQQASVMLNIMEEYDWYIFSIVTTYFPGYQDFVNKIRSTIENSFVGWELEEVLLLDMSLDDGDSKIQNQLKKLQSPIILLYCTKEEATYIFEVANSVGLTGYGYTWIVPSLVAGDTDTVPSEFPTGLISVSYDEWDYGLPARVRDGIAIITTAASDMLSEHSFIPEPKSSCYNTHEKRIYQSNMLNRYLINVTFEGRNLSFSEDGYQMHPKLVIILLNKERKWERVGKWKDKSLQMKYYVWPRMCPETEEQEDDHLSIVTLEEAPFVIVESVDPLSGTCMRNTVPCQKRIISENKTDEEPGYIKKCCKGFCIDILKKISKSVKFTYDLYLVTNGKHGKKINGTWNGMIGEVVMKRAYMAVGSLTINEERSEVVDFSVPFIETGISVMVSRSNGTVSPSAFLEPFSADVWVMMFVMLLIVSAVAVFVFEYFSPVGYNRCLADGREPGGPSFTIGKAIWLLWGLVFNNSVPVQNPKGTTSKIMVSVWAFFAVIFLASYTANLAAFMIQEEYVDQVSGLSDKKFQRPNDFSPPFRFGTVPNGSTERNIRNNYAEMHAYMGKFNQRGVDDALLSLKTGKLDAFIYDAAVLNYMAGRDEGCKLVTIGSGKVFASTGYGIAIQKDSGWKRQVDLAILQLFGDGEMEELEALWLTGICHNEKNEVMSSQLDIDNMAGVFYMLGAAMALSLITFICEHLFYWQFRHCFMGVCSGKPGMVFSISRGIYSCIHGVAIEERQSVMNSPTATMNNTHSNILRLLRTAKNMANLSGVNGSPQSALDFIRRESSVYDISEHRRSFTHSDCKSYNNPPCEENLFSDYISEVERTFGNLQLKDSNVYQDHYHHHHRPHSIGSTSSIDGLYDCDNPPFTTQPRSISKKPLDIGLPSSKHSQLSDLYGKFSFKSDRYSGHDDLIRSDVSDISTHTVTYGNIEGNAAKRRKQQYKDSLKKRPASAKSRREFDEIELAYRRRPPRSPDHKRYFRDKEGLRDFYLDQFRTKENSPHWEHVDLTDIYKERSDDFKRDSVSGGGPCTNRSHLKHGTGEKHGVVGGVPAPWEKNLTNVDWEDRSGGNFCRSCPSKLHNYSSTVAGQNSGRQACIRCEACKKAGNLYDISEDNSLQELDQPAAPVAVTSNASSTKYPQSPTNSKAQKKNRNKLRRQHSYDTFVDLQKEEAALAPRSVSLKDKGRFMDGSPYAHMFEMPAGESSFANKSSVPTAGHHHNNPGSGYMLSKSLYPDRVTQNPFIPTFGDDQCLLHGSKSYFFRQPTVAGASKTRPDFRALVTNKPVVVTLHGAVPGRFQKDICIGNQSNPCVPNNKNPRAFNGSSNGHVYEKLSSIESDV
The series is described as follows: [3H]Ifenprodil binding assay (IFPNR). To be noted: displacement of 4 nM [3H]-ifenprodil, adult rat forebrain membranes, 2 hours at room temperature, pH 7.4. The protocol:
(b) [^3H]Ifenprodil Binding Assay (IFPNR) Protocol:
Ifenprodil, [phenyl-^3H]-(specific activity, 66.2 Ci/mmol) was purchased from Dupont NEN Research Products (Boston, Mass.). Ifenprodil tartrate was purchased from Research Biochemicals International (Natick, Mass.). HEPES, glutamate, and glycine were purchased from Sigma Chemical Co. (St. Louis, Mo.).
All buffers and reagents used in assay incubations or to dissolve drugs were prepared using water purified through a Milli-Q reverse osmosis system (Millipore Corp., Bedford, Mass.) and treated with UV emissions. Prior to use in the assays buffers were further filtered through a sterile Corning filtration unit (Corning Glass Works, Corning, N.Y.) containing a 0.2 micron filter. Buffer used to rinse the membranes on the assay filters was prepared with purified water, but was not refiltered and was stored no longer than 5 days. Stock solutions of the drugs (usually 10 mM) were dissolved in 20 mM HEPES-KOH buffer pH 7.4 (assay buffer) with the addition of from 1 to 5 μL of glacial AcOH, if needed to keep them in solution. Eliprodil was used as the reference NMDA antagonist. A stock solution of eliprodil was prepared and was buffered with the addition of 10% DMSO. All subsequent dilutions from the stock solution were made in buffer.
An extensively washed buffy coat membrane fraction was prepared from frozen adult rat forebrains (Zivic-Miller Laboratories, Inc., Zelienople, Pa.) as described by Coughenour L. L., Cordon J. J., J. Phannacol. Exp. Ther., 1997;280:584-592, and stored at −80° C. On the day of the assay, pellets of the frozen membrane fractions were resuspended in 35 mL of assay buffer at pH 7.4 using a POLYTRON (Kinematica A.G. Company, Littau, Switzerland) mixer at setting 6. After incubation at 37° C. for 30 minutes in a shaking water bath, the homogenate was centrifuged 40,000×g for 10 minutes at 4° C. The pellets were resuspended in fresh buffer and centrifuged 3 more times before final suspension for use in the assay.
Triplicate incubations were carried out in a volume of 0.5 mL in 1.3 mL polypropylene tubes (Marsh Biomedical Products Inc., Rochester, N.Y.) for 2 hours at room temperature. Incubations contained invention compounds, membranes (100-200 μg protein) and 4 nM [^3H]-ifenprodil in 20 mM HEPES-KOH buffer, pH 7.4 (assay buffer). Assays were started by addition of the membranes. Bound radioligand was separated by filtration under reduced pressure using a TOMTEC Mach II, 96 well cell harvester (Tomtec Inc, Orange, Conn.). Filtration was through Whatman GF/B glass fiber filters (Whatman Ltd., Maidstone, England), which had been soaked for at least 15 minutes in 0.3% polyethylenimine and allowed to air dry. The filters were rinsed with 3 mL of ice cold assay buffer within 6 seconds. Air was allowed to pass through the filters for an additional 10 seconds to remove residual moisture. The filter mat was supported on a cold (−20° C.) TEFLON (E. I. Du Pont de Nemours and Company, Wilmington, Del.) coated support, and filters from individual wells were separated and placed in Mini Poly-Q vials (Beckman Instruments Inc., Fullerton, Calif.) and filled with 4 mL of scintillation cocktail (Beckman Ready Protein^+). Radioactivity retained on the filter was determined by liquid scintillation spectrophotometry. Nonspecific binding was defined as the binding in the presence of 1 mM ifenprodil. 90% of the total binding of ifenprodil was specific binding at the NR1A/NR2B NMDA receptor subtype active site (as opposed to binding at a remote site).
Binding curves were statistically analyzed for a best one- or two-site competition fit using GRAPHPAD PRISM software (GraphPad Software Inc., San Diego, Calif.), a computer program used to analyze and graph scientific data. The normalized data was fitted by nonweighted nonlinear regression to either [formula]
Control data was entered as 100%, and no parameters were constrained. […]

`Cc1oc(-c2ccccc2)cc1CN(C)[C@H]1CC[C@H](c2ccc3[nH]c(=O)oc3c2)CC1` (as salt: hydrochloride) [Example 2, trans-6-{4-[Methyl-(2-methyl-5-phenyl-furan-3-ylmethyl)-amino]-cyclohexyl}-3H-benzoxazol-2-one] yielded a melting point of 176 to 183 °C.
In series [1], `Cc1oc(-c2ccccc2)cc1CN(C)[C@H]1CC[C@H](c2ccc3[nH]c(=O)oc3c2)CC1` [Example 2, trans-6-{4-[Methyl-(2-methyl-5-phenyl-furan-3-ylmethyl)-amino]-cyclohexyl}-3H-benzoxazol-2-one] showed a pIC50 of 5.18.
For the molecule `CN(CC1CC(c2ccc3[nH]c(=O)oc3c2)=NO1)[C@H]1CC[C@H](c2ccccc2)CC1` (relative stereo) (as salt: hydrochloride) [Example 1, trans-6-(5-{[Methyl-(4-phenyl-cyclohexyl)-amino]-methyl}-4,5-dihydro-isoxazol-3-yl)-3H-benzoxazol-2-one], the melting point was in the range of 270 to 274 °C.
Consider `CN(C[C@@H]1CN(c2ccccc2)C(=O)O1)[C@H]1CC[C@H](c2ccc3[nH]c(=O)oc3c2)CC1` [Example 3b, trans-(R)-6-{4-[Methyl-(2-oxo-3-phenyl-oxazolidin-5-ylmethyl)-amino]-cyclohexyl}-3H-benzoxazol-2-one], for which, in series [1], the pIC50 is 6.40.
Regarding `CN(CC1CC(c2ccc(F)cc2)=NO1)[C@H]1CC[C@H](c2ccc3[nH]c(=O)oc3c2)CC1` (relative stereo) [Example 6b, trans-6-(4-{[3-(4-Fluoro-phenyl)-4,5-dihydro-isoxazol-5-ylmethyl]-methyl-amino}-cyclohexyl)-3H-benzoxazol-2-one], the melting point lay within 109 to 114 °C. This molecule gave a pIC50 in series [1] of 6.41.
In series [1], `CN(CC1CN(c2ccc3[nH]c(=O)oc3c2)C(=O)O1)C1CCC(c2ccc(F)cc2)CC1` (stereo not drawn) [Example 4b, trans-6-(5-{[4-(4-Fluoro-phenyl)-cyclohexyl]-methyl-amino}-methyl-2-oxo-oxazolindin-3-yl)-3H-benzoxazol-2-one] showed a pIC50 of less than 6.00.
On to `Cc1sc(-c2ccccc2)nc1CN(C)[C@H]1CC[C@H](c2ccc3[nH]c(=O)oc3c2)CC1` [Example 5b, trans-6-{4-[Methyl-(5-methyl-2-phenyl-thiazol-4-ylmethyl)-amino]-cyclohexyl}-3H-benzoxazol-2-one], for which the melting point was in the range of 246 to 248 °C. The same molecule showed a pIC50 in series [1] of 6.07.
Molecule `O=C1OC(CNC2CCC(c3ccc(F)cc3)CC2)CN1c1ccc2[nH]c(=O)oc2c1` (stereo not drawn) [Example 4a, trans-6-{5-[4-(4-Fluoro-phenyl)-cyclohexylamino]-methyl-2-oxo-oxazolindin-3-yl}-3H-benzoxazol-2-one] gave a pIC50 in series [1] of less than 6.00.
`CN(CC1CC(c2ccc3[nH]c(=O)oc3c2)=NO1)[C@H]1CC[C@H](c2ccccc2)CC1` (relative stereo) [Example 1, trans-6-(5-{[Methyl-(4-phenyl-cyclohexyl)-amino]-methyl}-4,5-dihydro-isoxazol-3-yl)-3H-benzoxazol-2-one]: in series [1], the pIC50 is 5.23.

Source of the values: patent US6828341B2, “Cyclohexylamine derivatives as subtype selective N-Methyl-D-Aspartate antagonists” (Warner-Lambert Company, priority 2001, dated 2004).
